For 85 molecules, IC50 results are on record in ChEMBL document CHEMBL5604062, “ASAP - ZIKV NS2B-NS3 protease fluorescence dose response” (2024).

In this test the target is Nonstructural protein 3 (Zika virus, UniProt A0A024AXB9). Nature of the test: Functional biochemical assay to identify treatments for viral infectious disease that targets Zika NS2B-NS3 protease. Utilizing a direct enzyme activity measurement method, reading the fluorescence intensity is used to characterize the relative potency of inhibitors as IC50. The arrangement: species or system PRVABC59.
Sequence of Nonstructural protein 3 (A0A024AXB9 whole entry): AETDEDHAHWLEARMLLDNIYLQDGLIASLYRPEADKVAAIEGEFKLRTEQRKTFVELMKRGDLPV

Where “and” joins values, the source holds several entries; their conditions need not be identical. Identical values can stand only once. Some results are limits rather than exact numbers.

Usually IC50 stands for the point on the concentration scale where inhibition reaches its midpoint. Read a low IC50 as greater potency. `O=C(Nc1cc(Cl)cc([C@H](C#CCO)Nc2cccc(-c3nn[nH]n3)c2)c1)OCc1ccccc1` came in with an IC50 of 38.3 µM.
The result for `Cc1c(C(=O)Nc2cc(CCCN)ccc2F)cc(C2CC2)n1C` reads 69.2 µM; that for `Cc1c(C(=O)Nc2cccc(-n3nn[nH]c3=O)c2)cc(C2CC2)n1C`, > 99.5 µM; that for `NCc1cccc(N[C@H](C#CCO)c2cc(Cl)cc(NC(=O)OCc3ccccc3)c2)c1`, 17.7 µM.
The result for `Clc1cc(/C=C/c2cccc(-c3nn[nH]n3)c2)c2cn[nH]c2c1` reads > 99.5 µM; that for `COc1c(C(=O)N(C)C)cc(Cl)cc1S(=O)(=O)Nc1cccc(-c2nnn[nH]2)c1`, > 99.5 µM.
The result for `N#C[C@H](Nc1cccc(-c2nn[nH]n2)c1)c1cc(Cl)cc(NC(=O)OCc2ccccc2)c1` reads 24.6 µM and 27.6 µM and 24.8 µM.
For the molecule `O=C(Nc1ccc2c(c1)CNC2)c1cc(Cl)cc2[nH]ncc12`, the IC50 is < 50 nM (2×) and 139 nM and 164 nM.
The result for `O=C(Nc1cccc(-c2nnn[nH]2)c1)c1cc(Cl)cc2[nH]ncc12` reads > 99.5 µM.
The result for `COCc1cc(Cl)cc(S(=O)(=O)Nc2cccc(-c3nnn[nH]3)c2)c1` reads > 99.5 µM.
The result for `C=CC[C@H](Nc1cccc(-c2nn[nH]n2)c1)c1cc(Cl)cc2[nH]ncc12` reads > 99.5 µM.
Regarding `Cc1c(C(=O)Nc2ccc([C@@H](C)N)cc2)cc(C2CC2)n1C`, the IC50 was > 99.5 µM.
The result for `CNC(=O)[C@H](Nc1cccc(-c2nn[nH]n2)c1)c1cc(Cl)cc(NC(=O)OCc2ccccc2)c1` reads > 99.5 µM.
The result for `NCc1ccc2c(c1)[C@H]1OCCC[C@H]1[C@H](c1cc(Cl)cc(NC(=O)OCc3ccccc3)c1)N2` reads 6.91 µM; that for `CC[C@H](Cc1nnn[nH]1)c1ccc(NC(=O)c2cc(Cl)cc(-n3cccc3)c2)cc1`, 52.9 µM; that for `O=C(O)CCCc1ccc(NC(=O)c2cc(Cl)cc(NC(=O)OCc3ccccc3)c2)cc1`, > 99.5 µM.
With `O=S(=O)(Nc1cccc(-c2nnn[nH]2)c1)c1cc(Cl)cc(-c2ccccc2)c1`, the 50% inhibitory concentration (IC50) is > 99.5 µM.
The result for `N#Cc1cc(Cl)cc(S(=O)(=O)Nc2cccc(-c3nnn[nH]3)c2)c1` reads > 99.5 µM.
The result for `NCCc1ccc([C@H]2C[C@@H]2c2cc(Cl)cc(NC(=O)OCc3ccccc3)c2)cc1` reads 2.53 µM; that for `CC(C)[C@@H]1C(=O)O[C@H]1C(=O)O`, > 99.5 µM.
The result for `CNC(=O)[C@H](Nc1cccc(-c2nn[nH]n2)c1)c1cc(Cl)cc2[nH]ncc12` reads 9.2 µM.
The molecule `NCc1ccc2nc(-c3cc(Cl)cc(NC(=O)OCc4ccccc4)c3)c(CCCO)cc2c1` returned an IC50 of 51.9 µM.
The result for `Clc1cc(CCc2cccc(-c3nn[nH]n3)c2)c2cn[nH]c2c1` reads > 99.5 µM.
With `Nc1cccc(NC(=O)c2cc(Cl)cc(NC(=O)OCc3ccccc3)c2)c1`, the half-maximal inhibitory concentration (IC50) is > 99.5 µM.
The result for `CC(C)c1nc2c(C(=O)Nc3cccc(-c4nnn[nH]4)c3)cccc2[nH]1` reads > 99.5 µM.
The molecule `COC(=O)c1cc(Cl)cc([C@@H]2CN(Cc3ccccc3)C[C@H]2c2cccc(CN)c2)c1` yielded an IC50 of 47.5 µM.
With `O=S(=O)(Nc1cccc(-c2nnn[nH]2)c1)c1cc(Cl)cc2c1OCC2`, the IC50 was > 99.5 µM.
The result for `O=C(Nc1ccc(-c2nnn[nH]2)cc1)c1cc(Cl)cc(C2CC2)c1` reads > 99.5 µM; that for `CCNC(=O)Nc1cc(Cl)cc(C(=O)Nc2cc(C)cc(CN)c2)c1`, 0.676 µM.
The result for `Nc1nc2ccc(NC(=O)c3cc(Cl)cc(NC(=O)OCc4ccccc4)c3)cc2[nH]1` reads > 99.5 µM.
As to `O=C(Nc1cc(Cl)cc(S(=O)(=O)Nc2cccc(-c3nn[nH]n3)c2)c1)OCc1ccccc1`, the 50% inhibitory concentration (IC50) was > 99.5 µM.
The result for `NCc1cc(C(=O)O)cc([C@@H]2C[C@H]2c2cc(Cl)cc(NC(=O)OCc3ccccc3)c2)c1` reads > 99.5 µM.
The result for `CCNC(=O)Nc1cc(Cl)cc(C(=O)Nc2ccc([C@H](CC)Cc3nnn[nH]3)cc2)c1` reads > 99.5 µM; that for `CNC(=O)[C@H](Nc1cccc(N)n1)c1cc(Cl)cc(CNC(=O)OC(C)(C)C)c1`, > 99.5 µM; that for `O=C(Nc1cc(Cl)cc(C(=O)Nc2cc(Br)cc(-c3nnn[nH]3)c2)c1)OCc1ccccc1`, 7.24 µM.
The result for `C=CC[C@H](Nc1cc(Cl)cc(NC(=O)OCc2ccccc2)c1)c1cccc(-c2nn[nH]n2)c1` reads 13.5 µM and 9.86 µM and 11 µM; that for `O=C(Nc1cc(Cl)cc([C@H]2C[C@@H]2c2cccc(C3CCNCC3)c2)c1)OCc1ccccc1`, 2.64 µM.
Take `COC(=O)c1cc(NC(=O)c2cc(Cl)cc(NC(=O)OCc3ccccc3)c2)cc(-c2nnn[nH]2)c1`: the 50% inhibitory concentration (IC50) worked out at 9.61 µM.
The result for `N#Cc1cc(CN)cc(NC(=O)c2cc(Cl)cc(NC(=O)OCc3ccccc3)c2)c1` reads 10.7 µM.
Regarding `O=S(=O)(Nc1cccc(-c2nnn[nH]2)c1)c1cc(Cl)cc(C(F)(F)F)c1`, the 50% inhibitory concentration (IC50) was > 99.5 µM.
The result for `CCNC(=O)Nc1cc(Cl)cc(C(=O)Nc2ccc3c(c2)CNCCO3)c1` reads 0.749 µM; that for `C=CC[C@H](Nc1cc(CN)ccn1)c1cc(Cl)cc(NC(=O)OCc2ccccc2)c1`, > 99.5 µM; that for `CNC(=O)[C@H](Nc1cccc(C(=O)O)c1)c1cc(Cl)cc2[nH]ncc12`, > 99.5 µM.
The result for `CC[C@H](Cc1nn[nH]n1)c1ccc(N[C@H](C(=O)NC)c2cc(Cl)cc(NC(=O)OCc3ccccc3)c2)cc1` reads 79.1 µM; that for `CCNC(=O)Nc1cc(Cl)cc(C(=O)Nc2cccc(C3CCNCC3)c2)c1`, 19.9 µM.
The result for `O=C(Nc1cc(Cl)cc([C@H](C#CCO)Nc2ccc(-c3nn[nH]n3)cc2)c1)OCc1ccccc1` reads 22.7 µM.
The molecule `C=CC[C@H](Nc1cccc(CN)n1)c1cc(Cl)cc(NC(=O)OCc2ccccc2)c1` displayed a half-maximal inhibitory concentration (IC50) of 25.3 µM.
The result for `O=C(Nc1cc(Cl)cc(C(=O)NC2(c3nn[nH]n3)CCCC2)c1)OCc1ccccc1` reads > 99.5 µM; that for `C#C[C@H](Nc1cccc(-c2nn[nH]n2)c1)c1cc(Cl)cc(NC(=O)OCc2ccccc2)c1`, 22.9 µM.
Molecule `Cc1c(C(=O)Nc2cc(F)cc(CN)c2)cc(C2CC2)n1C` came in with an IC50 of 89.9 µM.
The result for `Cc1c(C(=O)Nc2cccc(CN)c2)cc(C2CCC2)n1C` reads > 99.5 µM; that for `Cc1c(C(=O)Nc2ccc(CN)cc2)cc(C2CC2)n1C`, > 99.5 µM; that for `CN1C[C@H](c2cccc(CN)c2)[C@@H](c2cc(Cl)cc(NC(=O)OCc3ccccc3)c2)C1`, > 99.5 µM.
The result for `Cc1c(C(=O)Nc2cc(CN)ccc2F)cc(C2CC2)n1C` reads > 99.5 µM; that for `CNC(=O)[C@H](Nc1cc(Cl)cc(NC(=O)OCc2ccccc2)c1)c1cccc(-c2nn[nH]n2)c1`, > 99.5 µM; that for `NCc1cccc([C@H](CCCO)Nc2cc(Cl)cc(NC(=O)OCc3ccccc3)c2)c1`, 27.4 µM.
The result for `O=C(Nc1cc(Cl)cc([C@H]2C[C@@H]2c2ccc3c(c2)CNC3)c1)OCc1ccccc1` reads 22.8 µM; that for `CC[C@H](Cc1nnn[nH]1)c1ccc(NC(=O)[C@H]2[C@H]3CCCCC[C@H]3[C@H]2NC(=O)OCc2ccccc2)cc1`, 52.4 µM.
On to `O=C(Nc1cccc(-n2nn[nH]c2=O)c1)c1cc(Cl)cc2c1CCC2`, for which the IC50 was > 99.5 µM.
With `CCNC(=O)Nc1cc(Cl)cc(C(=O)Nc2cc(CCCN)ccc2F)c1`, half-maximal inhibition (IC50) required 6.17 µM.
The result for `CCNC(=O)Nc1cc(Cl)cc(C(=O)Nc2cccc(-c3nn[nH]n3)c2)c1` reads > 99.5 µM; that for `O=C(Nc1cc(Cl)cc(C(=O)Nc2cc(-c3nnn[nH]3)ccc2F)c1)OCc1ccccc1`, 41.5 µM.
The result for `CCc1cc(C(=O)Nc2cccc(-n3nn[nH]c3=O)c2)sc1-c1ccc(Cl)cc1` reads 24.7 µM.
The result for `COC(=O)c1cc(CN)cc([C@@H]2C[C@H]2c2cc(Cl)cc(NC(=O)OCc3ccccc3)c2)c1` reads 31.7 µM.
Take `Cc1ccc(-c2nnn[nH]2)cc1NC(=O)c1cc(Cl)cc(NC(=O)OCc2ccccc2)c1`: the 50% inhibitory concentration (IC50) came to 58.7 µM.
The result for `NCc1ccc([C@H]2C[C@@H]2c2cc(Cl)cc(NC(=O)OCc3ccccc3)c2)cc1` reads 5.12 µM.
The result for `CCNC(=O)Nc1cc(Cl)cc(C(=O)Nc2cccc(-n3nn[nH]c3=O)c2)c1` reads > 99.5 µM.
The result for `O=C(O)CCCc1cccc(NC(=O)c2cc(Cl)cc(NC(=O)OCc3ccccc3)c2)c1` reads 84.3 µM; that for `NCc1cc(Cl)cc(C(=O)Nc2cccc(-c3nn[nH]n3)c2)c1`, > 99.5 µM.
Consider `C=CC[C@H](Nc1cccc(-c2nn[nH]n2)c1)c1cc(Cl)cc(NC(=O)OCc2ccccc2)c1`, for which it took 9.32 µM to reach half-maximal inhibition (IC50).
Consider `O=C(Nc1cc(Cl)cc(C(=O)N[C@H](c2nn[nH]n2)C2CCNCC2)c1)OCc1ccccc1`, for which the IC50 was > 99.5 µM.
Turning to `O=C(Nc1cc(Cl)cc(/C=C/c2cccc(-n3nn[nH]c3=O)c2)c1)OCc1ccccc1`, the half-inhibitory concentration (IC50) was > 99.5 µM.
The result for `O=C(Nc1cc(Cl)cc(S(=O)(=O)Nc2cccc(-n3nn[nH]c3=O)c2)c1)OCc1ccccc1` reads > 99.5 µM; that for `O=S(=O)(Nc1cccc(-c2nnn[nH]2)c1)c1cc(F)cc(Cl)c1`, > 99.5 µM; that for `CNC(=O)[C@H](Nc1cc(Cl)cc(NC(=O)OCc2ccccc2)c1)c1cccc(CN)c1`, 6.31 µM.
The result for `N#C[C@H](Nc1cccc(C(=O)O)c1)c1cc(Cl)cc2[nH]ncc12` reads > 99.5 µM; that for `CCOC(=O)c1[nH]c(C)c(C(=O)Nc2cccc(CN)c2)c1CC`, > 99.5 µM.
The result for `Cc1c(C(=O)Nc2ccc3c(c2)CNCCO3)cc(C2CC2)n1C` reads > 99.5 µM; that for `O=C(Nc1cc(Cl)cc(C(=O)Nc2ccc3c(c2)C(=O)NC3)c1)OCc1ccccc1`, > 99.5 µM; that for `N[C@H]1CCc2cc(NC(=O)c3cc(Cl)cc(NC(=O)OCc4ccccc4)c3)ccc21`, 5.75 µM.
Consider `O=C(N[C@H]1[C@H]2CCCCC[C@H]2[C@H]1C(=O)Nc1cccc(-n2nn[nH]c2=O)c1)OCc1ccccc1`, for which it took 63 µM to reach half-maximal inhibition (IC50).
As for `COC(=O)c1cc(Cl)cc(S(=O)(=O)Nc2cccc(-c3nnn[nH]3)c2)c1F`, the IC50 is > 99.5 µM.
The result for `NCc1ccc2c(c1)[C@H](N1CCCC1=O)C[C@H](c1cc(Cl)cc(NC(=O)OCc3ccccc3)c1)N2` reads 26.8 µM.
The result for `CNC(=O)C[C@H](Nc1cccc(F)n1)c1cc(Cl)cc(Br)c1` reads > 99.5 µM; that for `COc1c(C(N)=O)cc(Cl)cc1S(=O)(=O)Nc1cccc(-c2nnn[nH]2)c1`, > 99.5 µM.
